Columns and labels:
P2Y12 receptor = target: T1, P2Y12 receptor (Homo sapiens, UniProt Q9H244); assay: platelet ADP receptor binding assay (ARB): inhibition of [3H]2-MeS-ADP binding to platelets; details: [3H]2-MeS-ADP binding to apyrase-washed human platelets
T1 construct: endogenous in cells; host or cells: human platelets (outdated from blood banks or fresh), apyrase-washed, whole
Procedure, shortened: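 Apyrase-washed human platelets (1×10^8 per well) were preincubated 5 min with serial compound dilutions in Hepes-Tyrode's/0.1% BSA/0.6% DMSO, then incubated 15 min at room temperature with 1 nM [3H]2-MeS-ADP. Filter-bound radioactivity gave specific binding (nonspecific: 10 μM 2-MeS-ADP), and IC50s came from non-linear regression.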

[1] = test system: human platelet-rich plasma (PRP); assay: PRP assay: inhibition of ADP-mediated platelet aggregation in vitro; assay type: cell-based; details: Homo sapiens, Platelet, ADP-induced aggregation
Protocol: The effect of testing the compound according to the invention on ADP-induced human platelet aggregation was assessed in a 96-well microtiter assay (see generally the procedures in Jantzen, H. M. et al. (1999) Thromb. Hemost. 81:111-117) or standard cuvette light transmittance aggregometry using either human platelet-rich plasma (PRP) or human washed platelets.
For preparation of human platelet-rich plasma for aggregation assays, human venous blood was collected from healthy, drug-free volunteers into 0.38% sodium citrate (0.013 M, pH 7.0 final). Platelet-rich plasma (PRP) is prepared by centrifugation of whole blood at 160×g for 20 minutes at room temperature. The PRP layer is removed, transferred to a new tube, and the platelet count is adjusted, if necessary, to achieve a platelet concentration of ˜3×10^8 platelets/ml using platelet-poor plasma (PPP). PPP is prepared by centrifugation of the remaining blood sample (after removal of PRP) for 20 minutes at 800×g. This preparation of PRP can subsequently be used for aggregation assays in either a 96-well plate or standard cuvette aggregometry.
For cuvette light transmittance aggregation assays, serial dilutions (1:3) of test compounds were prepared in 100% DMSO in a 96 well V-bottom plate (final DMSO concentration in the cuvette was 0.6%). The test compound (3 μl of serial dilutions in DMSO) was preincubated with PRP for 30-45 seconds prior to initiation of aggregation reactions, which were performed in a ChronoLog aggregometer by addition of agonist (5 or 10 μM ADP) to 490 μL of PRP at 37° C. In some cases, light transmittance aggregometry was performed using 490 μL of washed platelets (prepared as described above) at 37° C., and aggregation was initiated by addition of 5 μM ADP and 0.5 mg/ml human fibrinogen (American Diagnostics, Inc., Greenwich, Conn.). The aggregation reaction is recorded for ˜5 min, and maximum extent of aggregation is determined by the difference in extent of aggregation at baseline, compared to the maximum aggregation that occurs during the five minute period of the assay. Inhibition of aggregation was calculated as the maximum aggregation observed in the presence of inhibitor, compared to that in the absence of inhibitor. IC50s were derived by non-linear regression analysis using the Prism software (GraphPad, San Diego, Calif.).
Inhibition of ADP-dependent aggregation was also determined in 96-well flat-bottom microtiter plates using a microtiter plate shaker and plate reader similar to the procedure described by Frantantoni et al., Am. J. Clin. Pathol. 94, 613 (1990). All steps are performed at room temperature. For 96-well plate aggregation using platelet-rich plasma (PRP), the total reaction volume of 0.2 ml/well includes 180 μl of PRP (˜3×10^8 platelets/ml, see above), 6 μl of either serial dilution of test compounds in 20% DMSO or buffer (for control wells), and 10 μl of 20×ADP agonist solution (100 μM). The OD of the samples is then determined at 450 nm using a microtiter plate reader (Softmax, Molecular Devices, Menlo Park, Calif.) resulting in the 0 minute reading. The plates are then agitated for 5 min on a microtiter plate shaker and the 5 minute reading is obtained in the plate reader. Aggregation is calculated from the decrease of OD at 450 nm at t=5 minutes compared to t=0 minutes and is expressed as % of the decrease in the ADP control samples after correcting for changes in the unaggregated control samples. IC50s were derived by non-linear regression analysis.

T1 sequence (Q9H244 whole entry): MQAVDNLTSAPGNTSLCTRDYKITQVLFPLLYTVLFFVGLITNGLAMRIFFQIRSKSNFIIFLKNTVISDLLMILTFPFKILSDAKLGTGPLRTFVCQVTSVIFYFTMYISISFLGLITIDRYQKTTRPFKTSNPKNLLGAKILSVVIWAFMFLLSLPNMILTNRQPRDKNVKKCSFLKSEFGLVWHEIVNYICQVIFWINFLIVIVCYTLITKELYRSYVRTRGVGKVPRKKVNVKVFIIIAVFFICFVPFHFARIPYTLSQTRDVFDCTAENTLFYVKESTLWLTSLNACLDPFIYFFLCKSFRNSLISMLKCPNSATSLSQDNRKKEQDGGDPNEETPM

Row | Compound | IC50 (P2Y12 receptor) [nM] | IC50 [1] [nM]
1 | CNc1cc2c(cc1F)C(=O)N(c1ccc(C(=O)N[C@@H](C(=O)O)c3ccc(Cl)s3)cc1)CO2 [Compound 62, (S)-2-(5-chlorothiophen-2-yl)-2-(4-(6-fluoro-7-(methylamino)-4-oxo-2H-benzo[e][1,3]oxazin-3(4H)-yl)benzaamido)acetic acid] | < 50 | > 30000
2 | CNc1cc2c(cc1F)C(=O)N(c1ccc(C(=O)NC(C(N)=O)c3ccc(Cl)s3)cc1)CO2 (stereo not shown) [Compound 70] | 50 to 500 | 10000 to 30000
3 | CNc1cc2c(cc1F)C(=O)N(c1ccc(C(=O)NC(c3noc(=O)[nH]3)c3ccc(Cl)s3)cc1)CO2 (stereo not shown) [Compound 71, N-((5-chlorothiophen-2-yl)(5-oxo-4,5-dihydro-1,2,4-oxadiazol-3-yl)methyl)-4-(6-fluoro-7-(methylamino)-4-oxo-2H-benzo[e][1,3]oxazin-3(4H)-yl)benzamide] | < 50 | 10000 to 30000
4 | CNc1cc2c(cc1F)C(=O)N(c1ccc(C(=O)NC(c3nnn(C)n3)c3ccc(Cl)s3)cc1)CO2 (stereo not shown) [Compound 74, N-((5-chlorothiophen-2-yl)(2-methyl-2H-tetrazol-5-yl)methyl)-4-(6-fluoro-7-(methylamino)-4-oxo-2H-benzo[e][1,3]oxazin-3(4H)-yl)benzamide] | 50 to 500 | > 30000
5 | CNc1cc2c(cc1F)C(=O)N(c1ccc(C(=O)NC(c3noc(=S)[nH]3)c3ccc(Cl)s3)cc1)CO2 (stereo not shown) [Compound 75, N-((5-chlorothiophen-2-yl)(5-thioxo-4,5-dihydro-1,2,4-oxadiazol-3-yl)methyl)-4-(6-fluoro-7-(methylamino)-4-oxo-2H-benzo[e][1,3]oxazin-3(4H)-yl)benzamide] | < 50 | 10000 to 30000
6 | CNc1cc2c(cc1F)C(=O)N(c1ccc(C(=O)NC(CC(=O)O)c3ccc(Cl)s3)cc1)CO2 (stereo not shown) [Compound 79, 3-(5-chlorothiophen-2-yl)-3-(4-(6-fluoro-7-(methylamino)-4-oxo-2H-benzo[e][1,3]oxazin-3(4H)-yl)benzamido)propanoic acid] | 50 to 500 | < 10000
7 | CNc1cc2c(cc1F)C(=O)N(c1ccc(C(=O)NC(c3cccc(Cl)c3)c3nnn[nH]3)cc1)CO2 (stereo not shown) [Compound 80, N-((3-chlorophenyl)(1H-tetrazol-5-yl)methyl)-4-(6-fluoro-7-(methylamino)-4-oxo-2H-benzo[e][1,3]oxazin-3(4H)-yl)benzamide] | 50 to 500 | > 30000
8 | CNc1cc2c(cc1F)C(=O)N(c1ccc(C(=O)NC(C(=O)O)c3cccc(Cl)c3)cc1)CO2 (stereo not shown) [Compound 81, 2-(3-chlorophenyl)-2-(4-(6-fluoro-7-(methylamino)-4-oxo-2H-benzo[e][1,3]oxazin-3(4H)-yl)benzamido)acetic acid] | 50 to 500 | > 30000
9 | CNc1cc2c(cc1F)C(=O)N(c1ccc(C(=O)NC(c3ccc(Cl)s3)c3nccs3)cc1)CO2 (stereo not shown) [Compound 82, N-((5-chlorothiophen-2-yl)(thiazol-2-yl)methyl)-4-(6-fluoro-7-(methylamino)-4-oxo-2H-benzo[e][1,3]oxazin-3(4H)-yl)benzamide] | 50 to 500 | > 30000
10 | CNc1cc2ccn(-c3ccc(C(=O)NC(C(=O)O)c4ccc(Cl)s4)cc3)c(=O)c2cc1F (stereo not shown) [Compound 90, 2-(5-chlorothiophen-2-yl)-2-(4-(7-fluoro-6-(methylamino)-1-oxoisoquinolin-2(1H)-yl)benzamido)acetic acid] | < 50 | 10000 to 30000
11 | CNc1cc2ccn(-c3ccc(C(=O)NC(c4nnn[nH]4)c4ccc(Cl)s4)cc3)c(=O)c2cc1F (stereo not shown) [Compound 91, N-((5-chlorothiophen-2-yl)(1H-tetrazol-5-yl)methyl)-4-(7-fluoro-6-(methylamino)-1-oxoisoquinolin-2(1H)-yl)benzamide] | < 50 | 10000 to 30000
12 | CNc1cc2c(cc1F)C(=O)N(c1ccc(CNC(C(=O)O)c3ccc(Cl)s3)cc1)CO2 (stereo not shown) [Compound 105, 2-(5-chlorothiophen-2-yl)-2-(4-(6-fluoro-7-(methylamino)-4-oxo-2H-benzo[e][1,3]oxazin-3(4H)-yl)benzylamino)acetic acid] | 50 to 500 | > 30000
13 | CNc1cc2c(cc1F)C(=O)N(c1ccc(CNC(CC(=O)O)c3ccc(Cl)s3)cc1)CO2 (stereo not shown) [Compound 106, 3-(5-chlorothiophen-2-yl)-3-(4-(6-fluoro-7-(methylamino)-4-oxo-2H-benzo[e][1,3]oxazin-3(4H)-yl)benzylamino)propanoic acid] | 50 to 500 | > 30000
14 | CNc1cc2ccn(-c3ccc(CNC(C(=O)O)c4ccc(Cl)s4)cc3)c(=O)c2cc1F (stereo not shown) [Compound 115, 2-(5-chlorothiophen-2-yl)-2-(4-(7-fluoro-6-(methylamino)-1-oxoisoquinolin-2(1H)-yl)benzylamino)acetic acid] | 50 to 500 | > 30000

From US7834023B2 (Portola Pharmaceuticals, Inc., priority 2006, dated 2010)
